System: purified human Hsp90
Experiment: Binding Assay: fluorescence polarization with BODIPY-labeled geldanamycin
Settings: BODIPY-GM 10 nM, Hsp90 30 nM
In short: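 Compounds in 2% DMSO final compete with 10 nM BODIPY-GM for 30 nM purified human Hsp90, incubated overnight at room temperature in pH 7.3 HEPES buffer containing Na2MoO4 and DTT. Polarization (mP, ex/em 485/530) normalized to DMSO gives percent inhibition; autofluorescence-confounded data excluded.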

For `COc1ccc(C#N)cc1Sc1nc2c(N)ncn(CCc3ccccc3Cl)c-2n1` [Example 307, 3-({6-Amino-3-[2-(2-chlorophenyl)ethyl]-3H-purin-8-yl}thio)-4-methoxybenzonitrile], the “% Inhibition at 5 μM Compound Concentration” value (from here on “% Inhibition”) was 40.0%.
`Nc1ncnc2c1nc(Sc1cc3c(cc1Br)OCO3)n2CCC1CCN(CC(F)(F)F)CC1` [Example 585, 8-[(6-Bromo-1,3-benzodioxol-5-yl)thio]-9-{2-[1-(2,2,2-trifluoroethyl)piperidin-4-yl]ethyl}-9 H-purin-6-amine] was tested, and the IC50 was 0.6 µM.
`Cc1ccc(C)c(CCn2cnc(N)c3nc(Sc4cc5c(cc4Br)OCO5)nc2-3)c1` [Example 125, 8-(6-bromo-benzo[1,3]dioxol-5-ylsulfanyl)-3-[2-(2,5-dimethyl-phenyl)-ethyl]-3H-purin-6-ylamine] was tested, and the “% Inhibition” value was 12%.
`COc1ccc(OC)c(Sc2nc3c(N)ncnc3n2CCc2ccc(Cl)cc2)c1` [Example 248, 9-[2-(4-Chlorophenyl)ethyl]-8-[(2,5-dimethoxyphenyl)thio]-9H-purin-6-amine] was tested, and the IC50 was > 5 µM.
`CC(=O)N1CCC(CCn2c(Sc3cc(Br)c4c(c3)CCO4)nc3c(N)ncnc32)CC1` [Example 530, 9-[2-(1-Acetylpiperidin-4-yl)ethyl]-8-[(7-bromo-2,3-dihydro-1-benzofuran-5-yl)thio]-9 H-purin-6-amine] gave an IC50 of 2.5 µM.
Compound `CC(C)(C)OC(=O)N1CCCC(Cn2c(Sc3cc4c(cc3Br)OCO4)nc3c(N)ncnc32)C1` (stereo not drawn) [Example 641, tert-Butyl 3-({6-amino-8-[(6-bromo-1,3-benzodioxol-5-yl)thio]-9 H-purin-9-yl}methyl)piperidine-1-carboxylate] has an IC50 of 1.1 µM.
With `Nc1ncnc2c1nc(Sc1ccc3c(c1)OCO3)n2CCc1ccc(F)cc1` [Example 11, 8-(Benzo[1,3]dioxol-5-ylsulfanyl)-9-[2-(4-fluoro-phenyl)-ethyl]-9H-purin-6-ylamine] the IC50 was 0.6 µM.
`COc1ccc(OC)c(Sc2nc3c(N)ncnc3n2CCc2cccc(F)c2)c1` [Example 37, 8-(2,5-Dimethoxy-phenylsulfanyl)-9-[2-(3-fluoro-phenyl)-ethyl]-9H-purin-6-ylamine] gave an IC50 of 0.8 µM.
In the case of `CC(C)NC(=O)N1CCCC(CCn2cnc(N)c3nc(Sc4cc5c(cc4Br)OCO5)nc2-3)C1` (stereo not drawn) [Example 441, 3-(2-{6-Amino-8-[(6-bromo-1,3-benzodioxol-5-yl)thio]-3H-purin-3-yl}ethyl)-N-isopropylpiperidine-1-carboxamide], the “% Inhibition” value is reported as 45%.
`COc1ccc(OC)c(Sc2nc3c(N)ncnc3n2CCC2C(=O)NN=C2C)c1` (stereo not drawn) [Example 407, 4-(2-{6-Amino-8-[(2,5-dimethoxyphenyl)thio]-9H-purin-9-yl}ethyl)-5-methyl-2,4-dihydro-3H-pyrazol-3-one] was tested, and the IC50 was > 25 µM.
For `Nc1ncn(CCc2cccc(F)c2)c2nc(Sc3cc4c(cc3Br)OCO4)nc1-2` [Example 110, 8-(6-bromo-benzo[1,3]dioxol-5-ylsulfanyl)-3-[2-(3-fluoro-phenyl)-ethyl]-3H-purin-6-ylamine], the “% Inhibition” value was 16%.
In the case of `CC(C)[C@@H]1C[C@H](CCn2cnc(N)c3nc(Sc4cc5c(cc4Br)OCO5)nc2-3)CCN1C(=O)OC(C)(C)C` (relative stereo) [Example 430, tert-Butyl cis-4-(2-{6-amino-8-[(6-bromo-1,3-benzodioxol-5-yl)thio]-3H-purin-3-yl}ethyl)-2-isopropylpiperidine-1-carboxylate], the “% Inhibition” value is reported as 15%.
For `Nc1ncn(CCCc2ccccc2)c2nc(Sc3cc4c(cc3Br)OCO4)nc1-2` [Example 44, 8-(6-bromo-benzo[1,3]dioxol-5-ylsulfanyl)-3-(3-phenyl-propyl)-3H-purin-6-ylamine], the IC50 was 27 µM.
With `N#CC1CCN(CCn2c(Sc3cc4c(cc3Br)OCO4)nc3c(N)ncnc32)CC1` [Example 575, 1-(2-{6-Amino-8-[(6-bromo-1,3-benzodioxol-5-yl)thio]-9 H-purin-9-yl}ethyl)piperidine-4-carbonitrile] the IC50 was 0.8 µM.
`Nc1ncnc2c1nc(Sc1cc(OC(F)(F)F)ccc1OC1CCCC1)n2CCc1ccccc1` [Example 328, 8-{[2-(Cyclopentyloxy)-5-(trifluoromethoxy)phenyl]thio}-9-(2-phenylethyl)-9H-purin-6-amine] was tested, and the IC50 was > 8 µM.
`Nc1ncn(CCC2CCN(C(=O)C3CC3(F)F)CC2)c2nc(Sc3cc4c(cc3Br)OCO4)nc1-2` (stereo not drawn) [Example 525, 8-[(6-Bromo-1,3-benzodioxol-5-yl)thio]-3-(2-{1-[(2,2-difluorocyclopropyl)carbonyl]piperidin-4-yl}ethyl)-3 H-purin-6-amine] was tested, and the “% Inhibition” value was 13.00%.
Work on `CC(C)(C)OC(=O)NC(CCn1cnc(N)c2nc(Sc3cc4c(cc3Br)OCO4)nc1-2)C1CCCCC1` (stereo not drawn) [Example 671, tert-Butyl(3-{6-amino-8-[(6-bromo-1,3-benzodioxol-5-yl)thio]-3H-purin-3-yl}-1-cyclohexylpropyl)carbamate] yielded an IC50 of 1 µM.
In the case of `COc1ccc(OC)c(Sc2nc3c(N)ncnc3n2CCc2ccc(C(=O)O)cc2)c1` [Example 81, 4-{2-[6-Amino-8-(2,5-dimethoxy-phenylsulfanyl)-purin-9-yl]-ethyl}-benzoic acid], the “% Inhibition” value is reported as 23%.
With `COc1ccc(OC)c(Sc2nc3c(N)ncn(CCc4cccs4)c-3n2)c1` [Example 200, 8-(2,5-dimethoxy-phenylsulfanyl)-3-(2-thiophen-2-yl-ethyl)-3H-purin-6-ylamine] the “% Inhibition” value was 18%.
In the case of `Nc1ncnc2c1nc(Sc1ccc3c(c1)OC(F)(F)O3)n2CCc1ccccc1` [Example 292, 8-[(2,2-Difluoro-1,3-benzodioxol-5-yl)thio]-9-(2-phenylethyl)-9H-purin-6-amine], the IC50 is reported as > 25 µM.
`COc1ccc(OC)c(Sc2nc3c(N)ncnc3n2CCc2ccc(C(C)=O)cc2)c1` [Example 63, 1-(4-{2-[6-Amino-8-(2,5-dimethoxy-phenylsulfanyl)-purin-9-yl]-ethyl}-phenyl)-ethanone] was tested, and the IC50 was > 5 µM.
For `COc1cccc(CCn2cnc(N)c3nc(Sc4cc5c(cc4Br)OCO5)nc2-3)c1` [Example 309, 8-[(6-Bromo-1,3-benzodioxol-5-yl)thio]-3-[2-(3-methoxyphenyl)ethyl]-3H-purin-6-amine], the “% Inhibition” value was 25.0%.
With `CC(=O)N1CCC(CCn2cnc(N)c3nc(Sc4ccc5c(c4)OC(F)(F)O5)nc2-3)CC1` [Example 572, 3-[2-(1-Acetylpiperidin-4-yl)ethyl]-8-[(2,2-difluoro-1,3-benzodioxol-5-yl)thio]-3 H-purin-6-amine] the “% Inhibition” value was 0.00%.
`COc1cc(CCn2cnc(N)c3nc(Sc4cc5c(cc4Br)OCO5)nc2-3)cc(OC)c1` [Example 196, 8-(6-Bromo-benzo[1,3]dioxol-5-ylsulfanyl)-3-[2-(3,5-dimethoxy-phenyl)-ethyl]-3H-purin-6-ylamine] was tested, and the “% Inhibition” value was 10%.
In the case of `Nc1ncnc2c1nc(Sc1cc3c(cc1Br)OCO3)n2CCC1CCN(C(=O)OCc2ccccc2)CC1` [Example 409, Benzyl 4-(2-{6-amino-8-[(6-bromo-1,3-benzodioxol-5-yl)thio]-9H-purin-9-yl}ethyl)piperidine-1-carboxylate], the IC50 is reported as 0.13 µM.
`COc1ccc(OC)c(Sc2nc3c(N)ncn(CCc4ccc(F)cc4)c-3n2)c1` [Example 10, 8-(2,5-dimethoxy-phenylsulfanyl)-3-[2-(4-fluoro-phenyl)-ethyl]-3H-purin-6-ylamine] was tested, and the IC50 was > 50 µM.
In the case of `Nc1ncnc2c1nc(Sc1cc3c(cc1Br)OCO3)n2CC1(c2ccc(Cl)cc2)CC1` [Example 221, 8-(6-Bromo-benzo[1,3]dioxol-5-ylsulfanyl)-9-[1-(4-chloro-phenyl)-cyclopropylmethyl]-9H-purin-6-ylamine], the IC50 is reported as > 9 µM.
In the case of `CCOC(=O)N1CCCCC1CCn1cnc(N)c2nc(Sc3cc4c(cc3Br)OCO4)nc1-2` (stereo not drawn) [Example 340, Ethyl 2-(2-{6-amino-8-[(6-bromo-1,3-benzodioxol-5-yl)thio]-3H-purin-3-carboxylate], the “% Inhibition” value is reported as 23%.
For `CC(C)(C)OC(=O)N1CCC(CCn2c(Sc3cc4c(cc3Br)OCO4)nc3c(N)ncnc32)C1` (stereo not drawn) [Example 415, tert-Butyl 3-(2-{6-amino-8-[(6-bromo-1,3-benzodioxol-5-yl)thio]-9H-purin-9-yl}ethyl)pyrrolidine-1-carboxylate], the IC50 was 0.46 µM.
In the case of `COc1cc(Sc2nc3c(N)ncnc3n2CCc2ccc(Cl)cc2)cc(OC)c1OC` [Example 31, 9-[2-(4-Chloro-phenyl)-ethyl]-8-(3,4,5-trimethoxy-phenylsulfanyl)-9H-purin-6-ylamine], the IC50 is reported as > 10 µM.
With `Nc1ncnc2c1nc(Sc1ccc3c(c1)OCO3)n2CCc1ccccc1Cl` [Example 289, 8-(1,3-Benzodioxol-5-ylthio)-9-[2-(2-chlorophenyl)ethyl]-9H-purin-6-amine] the IC50 was 1.6 µM.
With `Cc1ccccc1CCn1cnc(N)c2nc(Sc3cc4c(cc3Br)OCO4)nc1-2` [Example 156, 8-(6-bromo-benzo[1,3]dioxol-5-ylsulfanyl)-3-(2-o-tolyl-ethyl)-3H-purin-6-ylamine] the “% Inhibition” value was 16%.
`CC(C)(C)OC(=O)N1CCC[C@H]1C(=O)N1CCC(CCn2c(Sc3cc4c(cc3Br)OCO4)nc3c(N)ncnc32)CC1` [Example 730, tert-Butyl(2S)-2-{[4-(2-{6-amino-8-[(6-bromo-1,3-benzodioxol-5-yl)thio]-9H-purin-9-yl}ethyl)piperidin-1-yl]carbonyl}pyrrolidine-1-carboxylate] was tested, and the IC50 was > 5 µM.
For `COc1ccc(OC)c(Sc2nc3c(N)ncn(CCc4ccccc4C(F)(F)F)c-3n2)c1` [Example 184, 8-(2,5-dimethoxy-phenylsulfanyl)-3-[2-(2-trifluoromethyl-phenyl)-ethyl]-3H-purin-6-ylamine], the “% Inhibition” value was 0%.
With `COc1ccc(OC)c(Sc2nc3c(N)ncnc3n2CCc2cc(F)cc(F)c2)c1` [Example 143, 9-[2-(3,5-Difluoro-phenyl)-ethyl]-8-(2,5-dimethoxy-phenylsulfanyl)-9H-purin-6-ylamine] the IC50 was > 3 µM.
For `COc1cc(Sc2nc3c(N)ncn(CCc4ccc(Cl)cc4)c-3n2)cc(OC)c1OC` [Example 32, 3-[2-(4-chloro-phenyl)-ethyl]-8-(3,4,5-trimethoxy-phenylsulfanyl)-3H-purin-6-ylamine], the IC50 was > 10 µM.

Source: US7595401B2, “Therapeutic compounds and their use in cancer” (Myriad Pharmaceuticals, Inc., priority 2006, dated 2009)
